Key:
[1] = Free radical scavenger, SOD mimetic activity (xanthine/xanthine oxidase/NBT); type: biochemical; conditions: reference agents; read-out: Concentration at 50 % Inhibition
Protocol: Conversion of xanthine to uric acid+O^−+NBT to formazan was then determined by measurement of absorbance at 595 nm and percent inhibition by superoxide dismutase or test compound was calculated.

chondrocytes [2] = test: Micromass culture of chondrocytes, herbal preparations in combination with glucosamine; type: cell-based, human
Protocol: Expression was measured on micromass culture after cells grown for two weeks. Induction medium alone (left); with 0.1 mM glucosamine (middle); with 1 mM glucosamine (right). […] All the preparations were at 0.01 mg/ml. Row A, B: alkaline phosphatase (ALP) stained by Naphthol AS-MX phosphate/Fast red; row C, D: collagen stained by Sirius red; row E, F: glycosaminoglycans stained by Safranin O.
(§1) Human articular cartilage was obtained from patients who received total joint replacement with consent. The cartilage was digested with 1 mg/ml of Class 2 and Class 4 bacterial collagenase (Worthington Chemical, Freehold, N.J.) in DMEM containing 10% fetal calf serum (FCS) and 25 ug/ml Gentamicin (Gibco, Grand Island, N.Y.) (C-DMEM) at 37° C. overnight. The primary cells were plated at high density in 10 mm culture dish (Nunc, Roskilde, Danmark) in C-DMEM and cultured under humidified atmosphere containing 5% CO2 at 37° C.
(§2) Ten ul of 1×10^7 cells in C-DMEM was seeded into the center of each well of 48 multiwell culture dish (Nunc, Roskilde, Danmark). Two hours later, 250 ul of F12/DMEM containing 5% FCS, 6.25 ug/ml bovine insulin, 25 ug/ml ascorbic acid and 100 nM Dexamethasone (induction medium) with various concentrations of herbal combinations or glucosamine (Sigma) was added. The media were changed twice a week for two weeks. At the end of the incubation, the media were changed with fresh DMEM. Twenty-four hours later, the media were collected for MMP zymography study and cells were fixed and stained for alkaline phosphatase (ALP), collagen or glycosaminoglycan using Naphthol AS-MX phosphate/Fast red, Sirius red, or Safranin O (Sigma), respectively.

chondrocytes [3] = test: Nitric oxide determination (Griess) after fluid induced shear stress; type: cell-based, human; conditions: for NO Concentration: pretreated two weeks, 0.01 mg/ml or glucosamine 1 mM
chondrocytes [4] = test: Gene expressions (RT-PCR) of shear-stressed vs. non-shear-stressed chondrocytes; type: cell-based, human; conditions: for Col I expression: glucosamine 1 mM
Protocol: Confluent cells were treated with various herbal combinations in F12/DMEM containing 5% FCS, 6.25 ug/ml bovine insulin, 25 ug/ml ascorbic acid and 100 nM Dexamethasone for 2 weeks with medium changed twice a week. At the end of each treatment, cells were washed with PBS and incubated in DMEM overnight. Cells were then exposed to fluid-induced shear stress by a custom-made cone viscometer at the rate of 100 rpm for 2 hours. The shear stress induced at this speed was 0.82 Pa (8.2 dyn/cm^2). […] Another set of cells was treated similarly without shearing as the control. The cells were washed with PBS, and RNA was extracted by Tri-Reagent (Sigma).
The RNA of cells was extracted with Tri-Reagent (Sigma). 800 ng of total RNA was reverse transcribed by Omniscript reverse transcriptase (Qiagen, Valencia, Calif.) in buffer containing 1 uM random primer, 0.5 mM each of dNTP, and 10 units of ribonuclease inhibitor. Reverse transcription was carried out at 37° C. for one hour by a programmable thermal controller (PTC-100, MJ Research, Inc., Watertown, Mass.). Reaction was terminated by raising the temperature to 93° C. for five minutes.
PCR was performed in a thermal controller (PTC-100, MJ Research, Inc., Watertown, Mass.) with master mix (HotStarTaq DNA polymerase, Qiagen) at initial denaturation at 95° C. for 15 minutes, followed by 25 cycles of 94° C. for 1 minute, 58° C. for 40 seconds, and 72° C. for 40 seconds. The final cycle extended 72° C. for 10 minutes. The PCR products accompanied by 100 bp ET marker were separated by 1.2% agarose gel, stained with ethidium bromide and visualized under UV light. A Polaroid picture was taken by Foto/Phoresis UV documentation system (Fotodyne Inc.). Beta-actin expression under the same experimental conditions was used as a reference to normalize the expressions.

TIMP = TIMP activities of chondrocyte culture supernatants by reverse zymography; type: cell-based, human; conditions: non-sheared
Protocol: Confluent cells were treated with various herbal combinations in F12/DMEM containing 5% FCS, 6.25 ug/ml bovine insulin, 25 ug/ml ascorbic acid and 100 nM Dexamethasone for 2 weeks with medium changed twice a week. At the end of each treatment, cells were washed with PBS and incubated in DMEM overnight. Cells were then exposed to fluid-induced shear stress by a custom-made cone viscometer at the rate of 100 rpm for 2 hours. The shear stress induced at this speed was 0.82 Pa (8.2 dyn/cm^2). […] Another set of cells was treated similarly without shearing as the control.
Equal amount of protein of each culture medium was mixed with equal volume of 2× non-reducing SDS sample buffer, and incubated at room temperature for two hours for sample to denature. The samples were loaded into each well of a 10% SDS polyacrylamide gel containing 1 mg/ml of bovine gelatin (Sigma) and 1 ml serum free 24 hour's culture supernatant of human foreskin dermal fibroblast which expressed MMP, and run at 20 mA in ice bath by a BioRad Mini Protean gel apparatus. After dye front reached the bottom of the gel, the gel was washed three times, 15 minutes each, with 2.5% Triton X-100. Then, the gel was renatured in developing buffer (50 mM Tris-HCl, pH7.6, 10 mM CaCl2, 50 mM NaCl, 0.05% Brij35) at 37° C. for 48 hours. […]

MMP-2 = MMP-2 activities of chondrocyte culture supernatants by zymography; type: cell-based, human
Protocol: Confluent cells were treated with various herbal combinations in F12/DMEM containing 5% FCS, 6.25 ug/ml bovine insulin, 25 ug/ml ascorbic acid and 100 nM Dexamethasone for 2 weeks with medium changed twice a week. At the end of each treatment, cells were washed with PBS and incubated in DMEM overnight. Cells were then exposed to fluid-induced shear stress by a custom-made cone viscometer at the rate of 100 rpm for 2 hours. The shear stress induced at this speed was 0.82 Pa (8.2 dyn/cm^2). Aliquots of culture medium were collected at designated time for nitric oxide measurement and MMP zymography analysis. Another set of cells was treated similarly without shearing as the control.
Equal amount of protein of each culture medium was mixed with equal volume of 2× non-reducing SDS sample buffer, and incubated at room temperature for two hours for sample to denature. The samples were loaded into each well of a 10% SDS polyacrylamide gel containing 1 mg/ml of bovine gelatin (Sigma), and run at 20 mA in ice bath by a BioRad Mini Protean gel apparatus. After dye front reached the bottom of the gel, the gel was washed three times, 15 minutes each, with 2.5% Triton X-100. Then, the gel was renatured in developing buffer (50 mM Tris-HCl, pH7.6, 10 mM CaCl2, 50 mM NaCl, 0.05% Brij35) at 37° C. for 48 hours. […]

[5] = tested on: bone marrow mesenchymal stem cells; test: Micromass culture of bone marrow mesenchymal stem cells, staining for ALP, collagen and GAGs; type: cell-based, human; conditions: 1 mM
Protocol: Herbal preparations were treated to cells grown in the induction medium in micromass culture for two weeks.
Human bone marrow mesenchymal stem cells were obtained from patients receiving total joint replacement with consent. The cells were cultured in DMEM containing 10% fetal calf serum (FCS), and 25 ug/ml Gentamicin (Gibco, Grand Island, N.Y.) (C-DMEM) at 37° C. under humidified atmosphere containing 5% CO2.
as §2

chondrocytes [6] = test: Micromass culture of chondrocytes, staining for ALP, collagen and GAGs; type: cell-based, human; conditions: 1 mM, two weeks
Protocol: Cells were grown for two weeks before measuring. […] Row A, B: alkaline phosphatase (ALP) stained by Naphthol AS-MX phosphate/Fast red; row C, D: collagen stained by Sirius red; row E, F: glycosaminoglycan stained by Safranin O.
as §1, §2

chondrocyte = conditions: Okazaki M, Osteoarthritis Cartilage 2003; cited from earlier work
[7] = biological target: T1, MMP-3 (stromelysin-1, human recombinant catalytic domain) (Homo sapiens, UniProt P08254); test: MMP-3 enzymatic assay; type: biochemical; conditions: reference agents; read-out: Concentration at 50 % Inhibition
T1 construct: MMP-3 (stromelysin-1, human recombinant catalytic domain from Calbiochem Cat. 444217); purchased Calbiochem 444217
Protocol: MMP-3 (stromelysin-1, human recombinant catalytic domain from Calbiochem Cat. 444217) was activated by p-aminophenylmercuric acetate for 60 minutes at 37° C. […] Enzyme activity was determined spectrofluorometrically by measuring the formation of fluorescent (7-methoxycoumarin-4-yl)acetyl-Pro-Leu-Gly.

[8] = biological target: T2, MMP-8 (collagenase-2, stimulated human neutrophils) (Homo sapiens, UniProt P22894); test: MMP-8 enzymatic assay; type: biochemical; conditions: reference agents; read-out: Concentration at 50 % Inhibition
T2 construct: purchased Calbiochem 444229; host or cells: natural protein from stimulated human neutrophils
Protocol: MMP-8 (collagenase-2, stimulated human neutrophils, Calbiochem Cat. 444229) was activated by p-aminophenylmercuric acetate for 60 minutes at 37° C. […] Enzyme activity was determined spectrofluorometrically by measuring the formation of fluorescent (7-methoxycoumarin-4-yl) acetyl-Pro-Leu-Gly.

[9] = biological target: T3, MMP-13 proenzyme (human recombinant) (Homo sapiens, UniProt P45452); test: MMP-13 enzymatic assay; type: biochemical; conditions: reference agents; read-out: Concentration at 50 % Inhibition
T3 construct: purchased Calbiochem 444248; host or cells: Sf9 cell
Protocol: MMP-13 proenzyme (human recombinant, expressed in Sf9 cell, Calbiochem Cat. 444248) was activated by p-aminophenylmercuric acetate for 60 minutes at 37° C. […] Enzyme activity was determined spectrofluorometrically by measuring the formation of fluorescent (7-methoxycoumarin-4-yl)acetyl-Pro-Leu-Gly.

T1 sequence (P08254 100-272 limits assumed): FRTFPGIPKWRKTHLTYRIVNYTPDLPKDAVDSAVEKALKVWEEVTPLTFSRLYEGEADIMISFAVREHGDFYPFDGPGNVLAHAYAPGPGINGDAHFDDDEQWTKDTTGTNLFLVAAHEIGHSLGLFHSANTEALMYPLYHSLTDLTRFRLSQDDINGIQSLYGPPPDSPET
T2 sequence (P22894 101-467): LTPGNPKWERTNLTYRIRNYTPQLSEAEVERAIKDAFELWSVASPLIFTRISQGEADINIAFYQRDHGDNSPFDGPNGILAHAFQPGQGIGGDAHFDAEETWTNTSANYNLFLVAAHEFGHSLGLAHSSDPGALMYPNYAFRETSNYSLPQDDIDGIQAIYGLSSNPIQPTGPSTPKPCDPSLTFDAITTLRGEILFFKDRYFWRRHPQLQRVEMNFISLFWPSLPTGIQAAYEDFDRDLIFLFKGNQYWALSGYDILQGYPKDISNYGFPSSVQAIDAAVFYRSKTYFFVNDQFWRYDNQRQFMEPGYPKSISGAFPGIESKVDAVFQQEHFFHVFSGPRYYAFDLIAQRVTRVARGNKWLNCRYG

O=C(O[C@@H]1Cc2c(O)cc(O)cc2O[C@@H]1c1ccc(O)c(O)c1)c1cc(O)c(O)c(O)c1 [(−)-Epicatechin gallate]
IC50 [1]: 6100 nM

N[C@H]1C(O)O[C@H](CO)[C@@H](O)[C@@H]1O (some centres unmarked) [glucosamine]
baseline GAG synthesis (chondrocytes [2]; 0.1 mM glucosamine): slightly increased
baseline collagen synthesis (chondrocytes [2]; 0.1 mM glucosamine): slightly increased
effect of glucosamine on the activity of herbal preparations (chondrocytes [2]; glucosamine 0.1 or 1 mM, preparations 0.01 mg/ml): did not affect the activity of herbal preparations
NO Concentration (chondrocytes [3]; Non-sheared, 0 h): 0.40 µM
NO Concentration (chondrocytes [3]; Non-sheared, 2 h): 0.00 µM
NO Concentration (chondrocytes [3]; Non-sheared, 4 h): 0.00 µM
NO Concentration (chondrocytes [3]; Non-sheared, 7 h): 0.00 µM
NO Concentration (chondrocytes [3]; Non-sheared, 24 h): 0.00 µM
NO Concentration (chondrocytes [3]; Non-sheared, (2 h)): 0.17 µM
NO Concentration (chondrocytes [3]; Sheared, 0 h): 4.58 µM
NO Concentration (chondrocytes [3]; Sheared, 2 h): 4.75 µM
NO Concentration (chondrocytes [3]; Sheared, 4 h): 4.58 µM
NO Concentration (chondrocytes [3]; Sheared, 7 h): 4.42 µM
NO Concentration (chondrocytes [3]; Sheared, 24 h): 4.72 µM
NO Concentration (chondrocytes [3]; Sheared, (2 h)): 0.85 µM
inhibition of NO production (chondrocytes [3]; fluid induced shear stress 100 rpm (0.82 Pa), two hours): 55%
aggrecanase expression (chondrocytes [4]; non-shear-stressed): inhibited aggrecanase expression
expression of aggrecan (chondrocytes [4]; non-shear-stressed): inhibited the expression of aggrecan significantly
BMP-2 expression (chondrocytes [4]; non-sheared): inhibited its expression completely
Col I expression (chondrocytes [4]; non-sheared): inhibited Col I expression significantly
BMP-2 expression (chondrocytes [4]; shear-stressed): showed less activity
aggrecanase expression (chondrocytes [4]; shear-stressed): slight increase in aggrecanase expression
expression of aggrecan (chondrocytes [4]; shear-stressed): slightly increased aggrecan expression
MMP-2 expression (chondrocytes [4]; shear-stressed and non-shear-stressed): not to be affected
Col I expression (chondrocytes [4]; sheared): no effect
TIMP (41 K band, >118 K band) (TIMP): decrease of TIMP
active and latent forms of MMP-2 (68 K, 72 K bands) (MMP-2; non-sheared): showed same profiles as controls
active and latent forms of MMP-2 (68 K, 72 K bands) (MMP-2; sheared): showed same profiles as controls
ALP [5]: did not show significant effects
GAGs synthesis [5]: did not show significant effects
collagen synthesis [5]: did not show significant effects
ALP (chondrocytes [6]; Naphthol AS-MX phosphate/Fast red): did not show effects
GAGs (chondrocytes [6]; Safranin O): did not show effects
Collagen (chondrocytes [6]; Sirius red): did not show effects

CCOC(CN1C(=O)[C@](CC(=O)Nc2ccc(C)cc2)(NC(=O)Nc2ccc(C)cc2)c2ccccc21)OCC [AG-041R]
ALP activity (chondrocyte): suppressed ALP activity
expression of type II collagen, aggrecan and BMP-2 genes (chondrocyte): up-regulated
proteoglycan synthesis (chondrocyte): accelerated proteoglycan synthesis

TIMP-1: tissue inhibitor of matrix metalloproteinase, comparison agent in the MMP assays
IC50 [7]: 7.6 nM
IC50 [8]: 3.9 nM
IC50 [9]: 6.8 nM
